Source: the NIST ThermoML archive (doi:10.1021/acs.jced.5b00256)
Numbers after ± are expanded uncertainties.

Assays:
[1] = refractive index (Na D-line) (dimensionless); xn = mol fraction of the nth substance listed; conditions: 100 kPa, Liquid, Standard Abbe refractometry
[2] = relative permittivity at various frequencies (dimensionless); xn = mol fraction of the nth substance listed; conditions: 100 kPa, Liquid, Frequency=2 MHz, Parallel plate capacitor

`COc1cccc(Br)c1` [1-bromo-3-methoxybenzene] + CCCO gave a refractive index ([1]; 303.15 K, x2 = 0) of 1.56 ± 0.002, a refractive index ([1]; 303.15 K, x2 = 0.107) of 1.555 ± 0.002 and a refractive index ([1]; 303.15 K, x2 = 0.206) of 1.544 ± 0.002. For the same molecule, the refractive index ([1]; 303.15 K, x2 = 0.296) was 1.53 ± 0.002, the refractive index ([1]; 303.15 K, x2 = 0.38) was 1.517 ± 0.002 and the refractive index ([1]; 303.15 K, x2 = 0.457) was 1.504 ± 0.002. The refractive index ([1]; 303.15 K, x2 = 0.529) was 1.493 ± 0.002, the refractive index ([1]; 303.15 K, x2 = 0.596) was 1.484 ± 0.002 and the refractive index ([1]; 303.15 K, x2 = 0.658) was 1.473 ± 0.002. It also gave a refractive index ([1]; 303.15 K, x2 = 0.716) of 1.461 ± 0.002, a refractive index ([1]; 303.15 K, x2 = 0.771) of 1.447 ± 0.002 and a refractive index ([1]; 303.15 K, x2 = 0.822) of 1.435 ± 0.002. The refractive index ([1]; 303.15 K, x2 = 0.871) was 1.421 ± 0.002, the refractive index ([1]; 303.15 K, x2 = 0.916) was 1.41 ± 0.002 and the refractive index ([1]; 303.15 K, x2 = 0.959) was 1.396 ± 0.002. The refractive index ([1]; 313.15 K, x2 = 0) was 1.558 ± 0.002, the refractive index ([1]; 313.15 K, x2 = 0.107) was 1.552 ± 0.002 and the refractive index ([1]; 313.15 K, x2 = 0.206) was 1.54 ± 0.002. For the same molecule, the refractive index ([1]; 313.15 K, x2 = 0.296) was 1.528 ± 0.002, the refractive index ([1]; 313.15 K, x2 = 0.38) was 1.515 ± 0.002 and the refractive index ([1]; 313.15 K, x2 = 0.457) was 1.501 ± 0.002. It also gave a refractive index ([1]; 313.15 K, x2 = 0.529) of 1.489 ± 0.002, a refractive index ([1]; 313.15 K, x2 = 0.596) of 1.482 ± 0.002 and a refractive index ([1]; 313.15 K, x2 = 0.658) of 1.468 ± 0.002. For the same molecule, the refractive index ([1]; 313.15 K, x2 = 0.716) was 1.458 ± 0.002, the refractive index ([1]; 313.15 K, x2 = 0.771) was 1.444 ± 0.002 and the refractive index ([1]; 313.15 K, x2 = 0.822) was 1.429 ± 0.002. The refractive index ([1]; 313.15 K, x2 = 0.871) was 1.418 ± 0.002, the refractive index ([1]; 313.15 K, x2 = 0.916) was 1.405 ± 0.002 and the refractive index ([1]; 313.15 K, x2 = 0.959) was 1.392 ± 0.002. For the same molecule, the refractive index ([1]; 323.15 K, x2 = 0) was 1.553 ± 0.002, the refractive index ([1]; 323.15 K, x2 = 0.107) was 1.548 ± 0.002 and the refractive index ([1]; 323.15 K, x2 = 0.206) was 1.535 ± 0.002. For the same molecule, the refractive index ([1]; 323.15 K, x2 = 0.296) was 1.523 ± 0.002, the refractive index ([1]; 323.15 K, x2 = 0.38) was 1.512 ± 0.002 and the refractive index ([1]; 323.15 K, x2 = 0.457) was 1.5 ± 0.002. The refractive index ([1]; 323.15 K, x2 = 0.529) was 1.488 ± 0.002, the refractive index ([1]; 323.15 K, x2 = 0.596) was 1.477 ± 0.002 and the refractive index ([1]; 323.15 K, x2 = 0.658) was 1.464 ± 0.002. For the same molecule, the refractive index ([1]; 323.15 K, x2 = 0.716) was 1.449 ± 0.002, the refractive index ([1]; 323.15 K, x2 = 0.771) was 1.437 ± 0.002 and the refractive index ([1]; 323.15 K, x2 = 0.822) was 1.425 ± 0.002. It also gave a refractive index ([1]; 323.15 K, x2 = 0.871) of 1.413 ± 0.002, a refractive index ([1]; 323.15 K, x2 = 0.916) of 1.401 ± 0.002 and a refractive index ([1]; 323.15 K, x2 = 0.959) of 1.388 ± 0.002. The refractive index ([1]; 333.15 K, x2 = 0) was 1.55 ± 0.002, the refractive index ([1]; 333.15 K, x2 = 0.107) was 1.546 ± 0.002 and the refractive index ([1]; 333.15 K, x2 = 0.206) was 1.532 ± 0.002. It also gave a refractive index ([1]; 333.15 K, x2 = 0.296) of 1.519 ± 0.002, a refractive index ([1]; 333.15 K, x2 = 0.38) of 1.508 ± 0.002 and a refractive index ([1]; 333.15 K, x2 = 0.457) of 1.497 ± 0.002. The refractive index ([1]; 333.15 K, x2 = 0.529) was 1.484 ± 0.002, the refractive index ([1]; 333.15 K, x2 = 0.596) was 1.474 ± 0.002 and the refractive index ([1]; 333.15 K, x2 = 0.658) was 1.461 ± 0.002. For the same molecule, the refractive index ([1]; 333.15 K, x2 = 0.716) was 1.447 ± 0.002, the refractive index ([1]; 333.15 K, x2 = 0.771) was 1.435 ± 0.002 and the refractive index ([1]; 333.15 K, x2 = 0.822) was 1.423 ± 0.002. For the same molecule, the refractive index ([1]; 333.15 K, x2 = 0.871) was 1.41 ± 0.002, the refractive index ([1]; 333.15 K, x2 = 0.916) was 1.398 ± 0.002 and the refractive index ([1]; 333.15 K, x2 = 0.959) was 1.385 ± 0.002. The relative permittivity ([2]; 303.15 K, x2 = 0) was 7.01 ± 0.6, the relative permittivity ([2]; 303.15 K, x2 = 0.107) was 7.18 ± 0.6 and the relative permittivity ([2]; 303.15 K, x2 = 0.206) was 7.55 ± 0.6. The relative permittivity ([2]; 303.15 K, x2 = 0.296) was 8.05 ± 0.6, the relative permittivity ([2]; 303.15 K, x2 = 0.38) was 8.67 ± 0.6 and the relative permittivity ([2]; 303.15 K, x2 = 0.457) was 9.46 ± 0.6. The relative permittivity ([2]; 303.15 K, x2 = 0.529) was 10.27 ± 0.6, the relative permittivity ([2]; 303.15 K, x2 = 0.596) was 11.08 ± 0.6 and the relative permittivity ([2]; 303.15 K, x2 = 0.658) was 12.04 ± 0.6. It also gave a relative permittivity ([2]; 303.15 K, x2 = 0.716) of 12.93 ± 0.6, a relative permittivity ([2]; 303.15 K, x2 = 0.771) of 13.98 ± 0.6 and a relative permittivity ([2]; 303.15 K, x2 = 0.822) of 15.14 ± 0.6. It also gave a relative permittivity ([2]; 303.15 K, x2 = 0.871) of 16.23 ± 0.6, a relative permittivity ([2]; 303.15 K, x2 = 0.916) of 17.33 ± 0.6 and a relative permittivity ([2]; 303.15 K, x2 = 0.959) of 18.58 ± 0.6. It also gave a relative permittivity ([2]; 313.15 K, x2 = 0) of 6.85 ± 0.6, a relative permittivity ([2]; 313.15 K, x2 = 0.107) of 7.03 ± 0.6 and a relative permittivity ([2]; 313.15 K, x2 = 0.206) of 7.39 ± 0.6. It also gave a relative permittivity ([2]; 313.15 K, x2 = 0.296) of 7.83 ± 0.6, a relative permittivity ([2]; 313.15 K, x2 = 0.38) of 8.39 ± 0.6 and a relative permittivity ([2]; 313.15 K, x2 = 0.457) of 9.11 ± 0.6. It also gave a relative permittivity ([2]; 313.15 K, x2 = 0.529) of 9.87 ± 0.6, a relative permittivity ([2]; 313.15 K, x2 = 0.596) of 10.61 ± 0.6 and a relative permittivity ([2]; 313.15 K, x2 = 0.658) of 11.56 ± 0.6. For the same molecule, the relative permittivity ([2]; 313.15 K, x2 = 0.716) was 12.39 ± 0.6, the relative permittivity ([2]; 313.15 K, x2 = 0.771) was 13.42 ± 0.6 and the relative permittivity ([2]; 313.15 K, x2 = 0.822) was 14.52 ± 0.6. For the same molecule, the relative permittivity ([2]; 313.15 K, x2 = 0.871) was 15.6 ± 0.6, the relative permittivity ([2]; 313.15 K, x2 = 0.916) was 16.62 ± 0.6 and the relative permittivity ([2]; 313.15 K, x2 = 0.959) was 17.66 ± 0.6. The relative permittivity ([2]; 323.15 K, x2 = 0) was 6.74 ± 0.6, the relative permittivity ([2]; 323.15 K, x2 = 0.107) was 6.89 ± 0.6 and the relative permittivity ([2]; 323.15 K, x2 = 0.206) was 7.15 ± 0.6. It also gave a relative permittivity ([2]; 323.15 K, x2 = 0.296) of 7.55 ± 0.6, a relative permittivity ([2]; 323.15 K, x2 = 0.38) of 8.08 ± 0.6 and a relative permittivity ([2]; 323.15 K, x2 = 0.457) of 8.68 ± 0.6. For the same molecule, the relative permittivity ([2]; 323.15 K, x2 = 0.529) was 9.4 ± 0.6, the relative permittivity ([2]; 323.15 K, x2 = 0.596) was 10.11 ± 0.6 and the relative permittivity ([2]; 323.15 K, x2 = 0.658) was 10.94 ± 0.6. It also gave a relative permittivity ([2]; 323.15 K, x2 = 0.716) of 11.71 ± 0.6, a relative permittivity ([2]; 323.15 K, x2 = 0.771) of 12.88 ± 0.6 and a relative permittivity ([2]; 323.15 K, x2 = 0.822) of 13.63 ± 0.6. It also gave a relative permittivity ([2]; 323.15 K, x2 = 0.871) of 14.65 ± 0.6, a relative permittivity ([2]; 323.15 K, x2 = 0.916) of 15.64 ± 0.6 and a relative permittivity ([2]; 323.15 K, x2 = 0.959) of 16.7 ± 0.6. For the same molecule, the relative permittivity ([2]; 333.15 K, x2 = 0) was 6.6 ± 0.6, the relative permittivity ([2]; 333.15 K, x2 = 0.107) was 6.7 ± 0.6 and the relative permittivity ([2]; 333.15 K, x2 = 0.206) was 6.95 ± 0.6. The relative permittivity ([2]; 333.15 K, x2 = 0.296) was 7.23 ± 0.6, the relative permittivity ([2]; 333.15 K, x2 = 0.38) was 7.65 ± 0.6 and the relative permittivity ([2]; 333.15 K, x2 = 0.457) was 8.2 ± 0.6. For the same molecule, the relative permittivity ([2]; 333.15 K, x2 = 0.529) was 8.74 ± 0.6, the relative permittivity ([2]; 333.15 K, x2 = 0.596) was 9.38 ± 0.6 and the relative permittivity ([2]; 333.15 K, x2 = 0.658) was 10.15 ± 0.6. For the same molecule, the relative permittivity ([2]; 333.15 K, x2 = 0.716) was 10.89 ± 0.6, the relative permittivity ([2]; 333.15 K, x2 = 0.771) was 11.8 ± 0.6 and the relative permittivity ([2]; 333.15 K, x2 = 0.822) was 12.43 ± 0.6. It also gave a relative permittivity ([2]; 333.15 K, x2 = 0.871) of 13.33 ± 0.6, a relative permittivity ([2]; 333.15 K, x2 = 0.916) of 14.3 ± 0.6 and a relative permittivity ([2]; 333.15 K, x2 = 0.959) of 15.22 ± 0.6.
